Values of other authors, collected in article PMC10817174, “Integrated drug response prediction models pinpoint repurposed drugs with effectiveness against rhabdomyosarcoma” (PLOS ONE, 2024).

Assays:
GDSC-RD cell line = details: Table S2, published drug response ref Iorio et al. (2016); cited from earlier work
GDSC-SJCRH30 cell line = details: Table S2, published drug response ref Iorio et al. (2016); cited from earlier work

Molecule | Iorio_RD (GDSC-RD cell line) | Iorio_SJCRH30 (GDSC-SJCRH30 cell line)
CC(C)c1ccccc1Cc1cc(C(=O)Nc2ccc(S(=O)(=O)c3ccccc3C(C)(C)C)cc2)c(O)c(O)c1O [TW-37] | R | R
COc1ccc(C(=O)CC2(O)C(=O)Nc3c(Cl)ccc(Cl)c32)cc1 (stereo not drawn) [YK-4-279] | R | R
NS(=O)(=O)OC[C@@H]1C[C@@H](n2ccc3c(N[C@H]4CCc5ccccc54)ncnc32)C[C@@H]1O [MLN4924] | R | R
Oc1nc(-c2ccc(C(F)(F)F)cc2)nc2c1CSCC2 [XAV-939] | R | R
Cc1ccc(C(=O)Nc2ccc(CN3CCN(C)CC3)c(C(F)(F)F)c2)cc1C#Cc1cnc2cccnn12 [AP-24534] | R | R
Cc1cccc(Nc2nc(-c3ccncc3)cs2)c1 [STF-62247] | R | R
CN1CCc2c(c3ccccc3n2Cc2ccc(C(=O)NO)cc2)C1 [Tubastatin-A] | S | R
CC(C)(C)OC(=O)Nc1ccc(-c2cc(C(=O)NCCCCCCC(=O)NO)no2)cc1 [CAY10603] | R | R
OC[C@H](Cc1ccccc1)Nc1nc(Oc2ccc3c(c2)CCC3)nc2c1ncn2Cc1ccc(-c2ccccc2)cc1 [QS11] | R | R
COc1cc(N2CCC(O)CC2)ccc1Nc1cc(Nc2ccccc2S(=O)(=O)C(C)C)c2cc[nH]c2n1 [MPS-1-IN-1] | R | R
CN(c1ncccc1CNc1nc(Nc2ccc3c(c2)CC(=O)N3)ncc1C(F)(F)F)S(C)(=O)=O [PF-562271] | R | R
Cn1cc(C2=C(c3cn(C4CCN(Cc5ccccn5)CC4)c4ccccc34)C(=O)NC2=O)c2ccccc21 [LY317615] | R | R
COc1ccc(COc2ccc(Cc3cnc(N)nc3N)cc2OC)cc1 [GW-2580] | R | R
CCN1CCN(Cc2ccc(NC(=O)c3ccc(C)c(/C=C/c4cnc5[nH]ccc5c4OC)c3)cc2C(F)(F)F)CC1 [HG-6-64-1] | R | R
Cc1cc([N+](=O)[O-])ccc1NS(=O)(=O)c1cc(Cl)ccc1Cl [FH535] | R | R
COc1cc2c(Oc3ccc(NC(=O)C4(C(=O)Nc5ccc(F)cc5)CC4)cc3F)ccnc2cc1OCCCN1CCOCC1 [XL-880] | R | R
COc1cc2ncnc(-n3nc(-c4ccccn4)nc3N)c2cc1OC [CP466722] | R | R
COC1=CC(c2cc3ccccc3[nH]2)=N/C1=C\c1[nH]c(C)cc1C [Obatoclax-Mesylate] | R | R
COC(=O)CNC(=O)C(=O)OC [DMOG] | R | R
O=C(NC(COc1ccc2[nH]c(=O)[nH]c2c1)c1ccccc1)c1cccn(Cc2ccc(F)c(F)c2)c1=O (stereo not drawn) [KIN001-244] | R | R
COC(=O)[C@H](CCSC)NC(=O)c1ccc(NC[C@@H](N)CS)cc1-c1ccccc1 [FTI-277] | R | R
Oc1cccc(-c2nc(N3CCOCC3)c3oc4ncccc4c3n2)c1 [PI-103] | R | R
O=C(O)CNC(=O)c1c(O)c2ccccc2n(Cc2ccccc2)c1=O [IOX2] | R | R
Cc1ccc(NC(=O)c2ccc(CN3CCN(C)CC3)cc2)cc1Nc1nc(-c2cccnc2)cs1 [Masitinib] | R | R

Molecule | Iorio_RD (GDSC-RD cell line) | Iorio_SJCRH30 (GDSC-SJCRH30 cell line)
O=c1[nH]c2ccccc2n1C1CCN(Cc2ccc(-c3nc4cc5[nH]cnc5cc4nc3-c3ccccc3)cc2)CC1 [AKT-inhibitor-VIII] | R | R
CCc1cc(-c2n[nH]c(C)c2-c2ccc3c(c2)OCCO3)c(O)cc1O [CCT018159] | R | R
[H]/N=C(/N)N/C(=N/[H])NCCc1ccccc1 [Phenformin] | R | R
COc1cc(N2CCN(C)CC2)ccc1Nc1nc(N)c(C(=O)c2c(Cl)cccc2Cl)s1 [XMD14-99] | R | R
CCc1nc(-c2cccc(C)c2)c(-c2ccnc(NC(=O)c3ccccc3)c2)s1 [TAK-715] | R | R
N#CC[C@H](C1CCCC1)n1cc(-c2ncnc3[nH]ccc23)cn1 [Ruxolitinib] | R | R
C/C(O)=C(\C#N)C(=O)Nc1cc(Br)ccc1Br [LFM-A13] | R | R
Cn1ncnc1[C@H]1c2n[nH]c(=O)c3cc(F)cc(c23)N[C@@H]1c1ccc(F)cc1 [BMN-673] | R | S
CCCC(=O)OCc1ccc(OC(=O)/C=C(C)/C=C/C=C(C)/C=C/C2=C(C)CCCC2(C)C)cc1 [VNLG-124] | R | R
CCN1CCC(n2cc(CNc3cc(Cl)c4ncc(C#N)c(Nc5ccc(F)c(Cl)c5)c4c3)nn2)CC1 [KIN001-266] | R | R
COc1ccc(-c2cc3nccn3c(Nc3ncccc3C(N)=O)n2)cc1OC [BAY-61-3606] | R | R
CCN1CCN(Cc2ccc(NC(=O)c3ccc(C)c(Oc4ccnc5[nH]ccc45)c3)cc2C(F)(F)F)CC1 [NG-25] | R | R
CN(C)Cc1cccc(N/C(=C2\C(=O)Nc3cc(C(=O)N(C)C)ccc32)c2ccccc2)c1 [BIX02189] | R | R
S=C(NCc1ccc2c(c1)OCO2)N1CCN(c2ncnc3c2oc2ccccc23)CC1 [MP470] | R | R
C#Cc1cccc(Nc2ncnc3cc(OC)c(OCCCCCCC(=O)NO)cc23)c1 [CUDC-101] | R | R
FC(F)c1nc2ccccc2n1-c1nc(N2CCOCC2)nc(N2CCOCC2)n1 [ZSTK474] | R | R
COc1cc2nccc(Oc3ccc(NC(=O)Nc4cc(C)on4)c(Cl)c3)c2cc1OC [AV-951, tivozanib] | R | R
CNCc1ccc(-c2[nH]c3cc(F)cc4c3c2CCNC4=O)cc1 [AG-014699] | R | R
Cn1cncc1[C@@](N)(c1ccc(Cl)cc1)c1ccc2c(c1)c(-c1cccc(Cl)c1)cc(=O)n2C [Tipifarnib] | R | R
O=c1cc(CN2CCOCC2)occ1OCCCCCSc1ccnc2cc(C(F)(F)F)ccc12 [EHT-1864] | R | R
I-BET-151 | R | R
CCNC(=O)c1noc(-c2cc(C(C)C)c(O)cc2O)c1-c1ccc(CN2CCOCC2)cc1 [AUY922] | R | R
C/C=C(/C)C(=O)O[C@H]1C(C)=C2[C@H]([C@@H]1OC(=O)CCCCCCC)[C@@](C)(OC(C)=O)C[C@H](OC(=O)CCC)[C@@]1(O)[C@H]2OC(=O)[C@@]1(C)O [Thapsigargin] | R | R
CC(=O)Nc1cccc(-n2c(=O)n(C3CC3)c(=O)c3c(Nc4ccc(I)cc4F)n(C)c(=O)c(C)c32)c1 [Trametinib] | S | R
